Reference: ChEMBL document CHEMBL1201862, “PubChem BioAssay data set” (2004)
Blank lines part the entries; values can stand above or below the molecule they belong to. Calls of active or inactive are those of the source.

Tests used:
[1] = target: T1, Cytochrome P450 1A2 (Homo sapiens, UniProt P05177);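 further: PubChem cytochrome P450 panel assay, CYP1A2 panel member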
T1 sequence (P05177 whole entry): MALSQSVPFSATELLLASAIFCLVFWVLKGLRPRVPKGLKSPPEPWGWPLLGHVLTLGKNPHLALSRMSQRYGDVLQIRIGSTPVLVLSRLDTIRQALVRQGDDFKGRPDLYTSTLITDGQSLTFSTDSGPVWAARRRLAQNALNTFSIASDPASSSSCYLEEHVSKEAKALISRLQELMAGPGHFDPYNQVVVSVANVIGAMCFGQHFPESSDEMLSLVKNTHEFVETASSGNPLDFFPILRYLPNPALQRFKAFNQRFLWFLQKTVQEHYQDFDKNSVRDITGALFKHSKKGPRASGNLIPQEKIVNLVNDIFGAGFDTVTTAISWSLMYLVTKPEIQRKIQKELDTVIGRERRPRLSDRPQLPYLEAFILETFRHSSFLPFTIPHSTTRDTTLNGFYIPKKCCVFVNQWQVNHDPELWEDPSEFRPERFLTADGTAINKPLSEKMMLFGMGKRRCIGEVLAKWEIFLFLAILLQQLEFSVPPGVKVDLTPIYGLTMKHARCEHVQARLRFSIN

[2] = Trypanosoma cruzi growth suppression in host cells – NIH3T3 host cells, beta-gal luminescence, confirmation (AID 2044); type: functional, cell-based;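 further: intracellular parasites grown in NIH/3T3 mouse fibroblasts as host cells; luminescent beta-galactosidase reporter signal from transgenic T. cruzi replicating inside host cells; inhibitors lower the luminescence signal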
[3] = NIH3T3 cell viability loss – ATP luminescence, mouse fibroblasts, counter-screen, dose response (AID 2010); type: functional, cell-based;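 further: cells exposed to compound for about 90 hours before reading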
[4] = target: T2, Rac GTPase-activating protein 1 (Homo sapiens, UniProt Q9H0H5); test: blockers of MgcRacGAP-driven Rac1 GTP hydrolysis – biochemical, ADP Hunter fluorescence, primary and confirmatory, confirmation (AID 624330); type: functional
T2 sequence (Q9H0H5 whole entry): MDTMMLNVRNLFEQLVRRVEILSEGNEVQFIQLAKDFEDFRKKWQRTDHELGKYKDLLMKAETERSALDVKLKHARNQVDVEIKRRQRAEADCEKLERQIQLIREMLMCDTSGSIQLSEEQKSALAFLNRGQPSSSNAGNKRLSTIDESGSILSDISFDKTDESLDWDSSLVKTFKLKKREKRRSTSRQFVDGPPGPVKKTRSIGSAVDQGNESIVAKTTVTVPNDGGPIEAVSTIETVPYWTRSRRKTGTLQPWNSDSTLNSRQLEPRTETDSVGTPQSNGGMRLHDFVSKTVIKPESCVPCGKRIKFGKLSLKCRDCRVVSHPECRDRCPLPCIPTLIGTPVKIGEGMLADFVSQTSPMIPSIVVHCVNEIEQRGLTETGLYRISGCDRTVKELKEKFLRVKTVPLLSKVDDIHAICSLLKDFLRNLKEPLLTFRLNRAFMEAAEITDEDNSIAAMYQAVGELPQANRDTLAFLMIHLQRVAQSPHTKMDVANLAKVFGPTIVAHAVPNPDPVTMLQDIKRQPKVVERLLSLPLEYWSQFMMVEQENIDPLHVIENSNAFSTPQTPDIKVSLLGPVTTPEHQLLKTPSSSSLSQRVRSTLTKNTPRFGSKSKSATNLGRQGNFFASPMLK

[5] = Luminescence Cell-Based Dose Retest to Confirm Inhibitors of Cancer Stem Cells. [Related pubchem assays (depositor defined):AID2717, AID2721]; type: functional; conditions: Homo sapiens
[6] = target: Cytochrome P450 3A4 (Homo sapiens, UniProt P08684);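 further: CYP3A4 tested as one member of a cytochrome P450 panel screen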
Chain of Cytochrome P450 3A4 (P08684 whole entry): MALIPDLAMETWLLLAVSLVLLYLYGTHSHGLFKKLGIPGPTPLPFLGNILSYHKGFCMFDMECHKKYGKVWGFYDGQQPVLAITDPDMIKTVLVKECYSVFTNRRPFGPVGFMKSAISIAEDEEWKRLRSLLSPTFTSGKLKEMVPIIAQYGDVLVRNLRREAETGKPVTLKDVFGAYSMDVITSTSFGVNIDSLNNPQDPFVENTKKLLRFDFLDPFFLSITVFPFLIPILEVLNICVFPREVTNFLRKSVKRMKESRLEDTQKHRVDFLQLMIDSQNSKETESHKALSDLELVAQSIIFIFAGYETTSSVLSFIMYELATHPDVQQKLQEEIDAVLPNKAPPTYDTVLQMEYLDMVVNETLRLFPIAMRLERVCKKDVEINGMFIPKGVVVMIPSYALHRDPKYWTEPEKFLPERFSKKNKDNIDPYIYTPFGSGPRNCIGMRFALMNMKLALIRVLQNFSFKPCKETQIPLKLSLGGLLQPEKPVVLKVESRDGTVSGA

[7] = tested on: Streptococcus sp. 'group A'; test: Streptococcus pyogenes SK(-)GAS viability under kanamycin – luminescence, BacTiterGlo, confirmation, counter-screen for streptokinase expression inhibitor project, dose response (AID 1900); type: functional, organism-based
[8] = tested on: Streptococcus; test: GAS UMAA2166 growth inhibition – luminescence, BacTiterGlo, counter-screen for streptokinase expression inhibitor project, dose response (AID 1915); type: functional, organism-based;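 further: potency for reduction of bacterial viability or growth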

- AC50 [1]: 6.31 µM (inconclusive)
Structure (SMILES): COc1ccc(-c2nc3cnc(OC)nc3n(CCC#N)c2=O)cc1

Structure (SMILES): Cc1cccc(NC(=S)N(CCc2nc3cc(C)c(C)cc3[nH]2)Cc2cccnc2)c1
- EC50 [2]: 0.853 µM (active)
- EC50 [3]: > 60 µM (not active)

Structure (SMILES): N#CC1=C(N)NC(SCc2ccc(Br)cc2)=C(C#N)C12CCCCC2
- EC50 [2]: 3.29 µM (active)
- EC50 [3]: > 60 µM (not active)

- IC50 [4]: 90.1 µM (active)
Structure (SMILES): COc1cc(C(=O)N/N=C/c2cn(Cc3ccccc3)c3ccccc23)ccc1O

- IC50 [4]: 15 µM (active)
Structure (SMILES): Oc1ccc(Nc2ncnc3c2oc2ccccc23)cc1

Structure (SMILES): CCc1ccccc1NC(=O)CN(c1ccc(OC)cc1OC)S(=O)(=O)c1ccccc1[N+](=O)[O-]
- EC50 [2]: 2.25 µM (active)
- EC50 [3]: > 60 µM (not active)

Structure (SMILES): COc1ccc(/C=N/N(Cc2ccccc2)c2ccccc2)cc1O
- AC50 [5]: 6.09 µM (active)

Structure (SMILES): CN(CCc1ccccn1)Cc1ccc(Cl)c(Cl)c1
- EC50 [2]: 0.244 µM (active)
- EC50 [3]: > 60 µM (not active)

- IC50 [4]: 202 µM (active)
Structure (SMILES): COc1cc2nc(=S)n(CCCN3CCOCC3)c(N)c2cc1OC

- AC50 [1]: 12.6 µM (inconclusive)
- AC50 [6]: 15.8 µM (inconclusive)
Structure (SMILES): CN1CCN(c2ncc3nc(CCc4ccccc4)c(=O)n(C4CC4)c3n2)CC1

Structure (SMILES): CCc1ccc(-c2cc3c(=O)n(CC(=O)NCCN4CCCCC4C)nc(C)n3n2)cc1 (stereo not given)
- AC50 [5]: 2.45 µM (active)

- AC50 [6]: 15.8 µM (inconclusive)
Structure (SMILES): COCCNC(=O)c1onc(CSc2ccc(Cl)cc2)c1C(=O)O

Structure (SMILES): COc1cccc(Oc2nc(-c3ccncc3)nc3ccccc23)c1
- EC50 [2]: 2.41 µM (active)
- EC50 [3]: 7.86 µM (active)

- AC50 [1]: 6.31 µM (inconclusive)
Structure (SMILES): CC1=C(/C=C\C(=O)O)C(C)(C)CCC1

Structure (SMILES): COc1ccc(-c2c[n+](CC(=O)N3c4ccccc4Sc4ccccc43)c3n2CCC3)cc1
- EC50 [2]: 0.648 µM (active)
- EC50 [3]: > 60 µM (not active)

Structure (SMILES): COc1ccc(C(c2nnnn2Cc2ccccc2)N2CCN(c3nc4ccccc4s3)CC2)cc1 (stereo not given)
- EC50 [2]: 3 µM (active)
- EC50 [3]: 8.63 µM (active)

Structure (SMILES): COc1ccc2[nH]c3c(c2c1)CCN=C3C
- AC50 [6]: 5.01 µM (inconclusive)

Structure (SMILES): CCCCNC(=O)CCc1c(C)nc2c(c(C)nn2-c2ccccc2)c1C
- EC50 [2]: 1.39 µM (active)
- EC50 [3]: > 30 µM (not active)

Structure (SMILES): COc1cccc(-c2sc3ccc(OC)cc3c2C#CCC(C)O)c1 (stereo not given)
- AC50 [5]: 3.66 µM (active)

- AC50 [6]: 31.6 µM (inconclusive)
Structure (SMILES): Cc1ccc(C)c(-n2c(Cc3cc(O)nc(O)n3)nnc2SCC(=O)NCC2CCCO2)c1 (stereo not given)

Structure (SMILES): Cc1nc2ccc(Br)cn2c1C(=O)N/N=C\c1ccc(C(C)C)cc1
- AC50 [5]: 2.75 µM (active)

- AC50 [1]: 10 µM (inconclusive)
Structure (SMILES): O=C(O)[C@@H]1CCN(Cc2oc(CO)cc(=O)c2O)C1

Structure (SMILES): CCn1c(NC(=O)c2cccc(Cn3cc(Cl)cn3)c2)nc2ccccc21
- EC50 [7]: 3.97 µM (active)
- EC50 [8]: 18.6 µM (active)

Structure (SMILES): Cc1ccc(Cl)cc1N1CCN(C(=O)c2ccc(CN3CCOCC3)cc2)CC1
- EC50 [2]: 2.13 µM (active)
- EC50 [3]: 4.63 µM (active)

- AC50 [6]: 3.16 µM (inconclusive)
Structure (SMILES): C#CCCCO/N=C1/C[C@@H](O)[C@@H](O)[C@@H]2[C@@H]3C(=O)N(CCC(=O)OCC)C(=O)[C@H]3CC[C@@H]12

- IC50 [4]: 54.4 µM (active)
Structure (SMILES): COc1cc(/C=N/N=C2\CC3CCC2(C)C3(C)C)ccc1O (stereo not given)

Structure (SMILES): Cc1c(C(=O)Nc2ccc3c(c2)OCCO3)sc2nc(-c3ccccc3)cn12
- EC50 [7]: 3.01 µM (active)
- EC50 [8]: 7.44 µM (active)

- AC50 [1]: 3.16 µM (inconclusive)
Structure (SMILES): CCCN1C[C@H](CSC)C[C@H]2c3cccc4[nH]cc(c34)C[C@@H]21

- AC50 [1]: 39.8 µM (inconclusive)
- AC50 [6]: 25.1 µM (inconclusive)
Structure (SMILES): COC(=O)c1ccc(N2CCN(c3ccccc3)CC2)c(NC(=O)C2CC2)c1

Structure (SMILES): CCOc1cc(-c2cc(-c3ccc(NC(C)=O)cc3)nc(N)c2C#N)ccc1O
- EC50 [7]: 0.651 µM (active)
- EC50 [8]: 6.34 µM (active)

- IC50 [4]: 46.9 µM (active)
Structure (SMILES): O=c1ccn(-c2ccccc2)[nH]1

- AC50 [1]: 15.8 µM (inconclusive)
Structure (SMILES): Cn1cc(-c2nc3cnc(N4CCNCC4)nc3n(C)c2=O)c2ccccc21

Structure (SMILES): Cc1nn(CC(=O)NC2C(=O)N3C(C(=O)O)=C(CSc4nnnn4C)CSC23)cc1Br (stereo not given)
- EC50 [7]: 0.072 µM (active)
- EC50 [8]: 0.316 µM (active)

Structure (SMILES): COc1ccc(-n2nc([N+](=O)[O-])c(NCCc3cccc(C)c3)[n+]2[O-])cc1
- EC50 [2]: 0.48 µM (active)
- EC50 [3]: > 60 µM (inconclusive)

- AC50 [6]: 0.0562 µM (inconclusive)
Structure (SMILES): CCS(=O)(=O)N1CCC(C(=O)NCCCOC)CC1

Structure (SMILES): CN(C)C=O.O=[N+]([O-])c1cccc(COc2ncnc3cc([N+](=O)[O-])ccc23)c1
- EC50 [2]: 1.93 µM (active)
- EC50 [3]: > 60 µM (not active)

Structure (SMILES): O=[N+]([O-])c1ccc(Nc2nc(NC3CCCCC3)nc(N3CCCC3)n2)cc1
- EC50 [2]: 1.75 µM (active)
- EC50 [3]: > 60 µM (not active)

Structure (SMILES): CCC(C)c1ccccc1NC(=O)COC(=O)c1ccc2[nH]c3c(c2c1)CCCC3 (stereo not given)
- AC50 [5]: 2.09 µM (active)

- AC50 [1]: 5.01 µM (inconclusive)
Structure (SMILES): CC1=C(C(=O)Nc2cccnc2)C(c2cccnc2)n2nc(-c3cccs3)nc2N1 (stereo not given)

Structure (SMILES): CCO/C(O)=C(/C#N)c1nc2ccccc2nc1N(CC(C)C)CC(C)C
- AC50 [5]: 6.07 µM (active)

- IC50 [4]: 41.9 µM (active)
Structure (SMILES): Oc1ccc2ccc(Cl)cc2c1

- AC50 [6]: 15.8 µM (inconclusive)
Structure (SMILES): COc1ccc(NC(=O)N2CCCC3(CCN(C(=O)c4cnccn4)CC3)C2)cc1

- AC50 [6]: 15.8 µM (inconclusive)
Structure (SMILES): CN1CCN(c2ccnc(-c3ccc(N(C)C)cc3)n2)CC1

Structure (SMILES): Nc1nc2c(C(=O)NCc3cccs3)nnn2c2cccc(Cl)c12
- AC50 [1]: 1 µM (inconclusive)

Structure (SMILES): CC(C)NCC(O)COC1C2CC3CC(C2)CC1C3 (stereo not given)
- EC50 [2]: 1.14 µM (active)
- EC50 [3]: > 60 µM (not active)

Structure (SMILES): COC(=O)c1ccc(-c2noc(CN(Cc3ccncc3)CC3CCCO3)n2)cc1 (stereo not given)
- EC50 [2]: 2.46 µM (active)
- EC50 [3]: > 60 µM (inconclusive)

Structure (SMILES): Clc1ccc(COc2cccc(CNCc3ccncc3)c2)cc1
- EC50 [2]: 3.42 µM (active)
- EC50 [3]: > 60 µM (not active)

- IC50 [4]: 47.1 µM (active)
Structure (SMILES): COc1cc(/C=N/Nc2nc(C)cc(C)n2)ccc1O

Structure (SMILES): Cc1c(C)n(CCCN(C)C)c2ncnc(Nc3ccc(F)cc3)c12
- EC50 [2]: 0.9 µM (active)
- EC50 [3]: > 30 µM (not active)

- AC50 [1]: 25.1 µM (inconclusive)
- AC50 [6]: 20 µM (inconclusive)
Structure (SMILES): O=C(Nc1ccccc1)N1CCCC2(CCNCC2)C1

- AC50 [6]: 15.8 µM (inconclusive)
Structure (SMILES): Cn1c(=O)c2c(nc(Cl)n2Cc2ccc(Cl)c(Cl)c2)n(C)c1=O

- IC50 [4]: 84.4 µM (active)
Structure (SMILES): COc1ccc(CN(C)CC(=O)Nc2ccc(Cl)cc2C(F)(F)F)c(OC)c1
